The values that follow are results of earlier work, collected in patent US20080139517A1, “Methods of treating age associated memory impairment (AAMI), mild cognitive impairment (MCI), and dementias with cell cycle inhibitors” (priority 2002, published 2008).

The test system of series [1] is ERK-1 and ERK-2 (p44 and p42 MAPK). The settings on record: in response to hypoxia/reoxygenation injury.
In the next series the test system is leukemia cells. The settings on record: G1 phase.
In another series the target is cdk4 (Homo sapiens, UniProt P11802).
Sequence of cdk4 (P11802 whole entry, species assumed): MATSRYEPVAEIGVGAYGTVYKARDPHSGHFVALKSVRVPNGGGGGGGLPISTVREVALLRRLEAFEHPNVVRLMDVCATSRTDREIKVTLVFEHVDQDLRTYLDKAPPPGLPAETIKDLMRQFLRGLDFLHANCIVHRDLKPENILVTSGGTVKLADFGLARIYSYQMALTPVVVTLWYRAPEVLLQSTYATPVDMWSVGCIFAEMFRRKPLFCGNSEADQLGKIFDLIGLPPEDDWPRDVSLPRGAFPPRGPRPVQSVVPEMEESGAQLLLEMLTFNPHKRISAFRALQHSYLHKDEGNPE
Sequence of cdk4 (P24385 whole entry partner, species assumed): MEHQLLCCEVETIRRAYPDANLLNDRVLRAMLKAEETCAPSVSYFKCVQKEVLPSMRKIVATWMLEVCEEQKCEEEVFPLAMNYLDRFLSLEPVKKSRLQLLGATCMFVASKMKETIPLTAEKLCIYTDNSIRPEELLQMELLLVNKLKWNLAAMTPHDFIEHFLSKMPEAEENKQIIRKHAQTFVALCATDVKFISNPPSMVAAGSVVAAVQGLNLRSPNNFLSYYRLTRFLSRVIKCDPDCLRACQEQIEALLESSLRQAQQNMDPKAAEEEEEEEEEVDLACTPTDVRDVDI
A further series concerns vascular dementia. The settings on record: in vivo.
For a further series, the system named is moderate to severe AD. Particulars: in vivo.
A further series deals with human cancer cells. Particulars: demonstrated in non-small-cell lung cancer cells.
The conditions of series [2]: children.
In the next series the test system is PC12 cells. Particulars: presence of nerve growth factor.

For the compound `CC(=O)Oc1ccccc1C(=O)O` [Aspirin, Acetylsalicylic acid], the “ERK-1 and ERK-2 (p44 and p42 MAPK) activation” value in series [1] is reported as “inhibit”.
For `NS(=O)(=O)c1ccc(S(=O)(=O)Nc2cccc3c(Cl)c[nH]c23)cc1` [E7070, N-(3-chloro-7-indolyl)-1,4-benzenedisulfonamide], the “cell cycle progression of leukemia cells” value with leukemia cells is listed as “block”.
Regarding `O=C1c2ccccc2-[n+]2ccc3c([nH]c4ccccc43)c21` [Fascaplysin], the cdk4 inhibition entry at cdk4 is recorded as “specifically inhibit”.
Regarding `C[C@]12N[C@H](Cc3ccccc31)c1ccccc12` [MK801], the excitotoxic neuronal death result with neuronal death is “blocks”.
Consider `CC12CC3CC(C)(C1)CC(N)(C3)C2` [Memantine], for which the “treatment of vascular dementia” value in the series with vascular dementia is “useful”. Moreover, the “treatment of moderate to severe AD” value in the series on moderate to severe AD is listed as “useful”.
As to `Cn1cncc1[C@@](N)(c1ccc(Cl)cc1)c1ccc2c(c1)c(-c1cccc(Cl)c1)cc(=O)n2C` [R115777], the p21 ras activation entry in the series on p21 ras is recorded as “prevent”.
As to `NC(=O)N1CCC(CC(=O)N2CCC([C@H]3c4ncc(Br)cc4CCc4cc(Cl)cc(Br)c43)CC2)CC1` [SCH66336], in the series on p21 ras, the p21 ras activation result is reported as “prevent”.
With `CCCC(CCC)C(=O)O` [Valproate, valproic acid], the “cell cycle arrest in glioma cell lines” value with glioma cell lines is listed as “induce cell cycle arrest”.
On to `C[C@@H]1C[C@H]1[C@H](C)C[C@@H](O)[C@@]1([C@H]2CC[C@H]3[C@@H]4CC[C@H]5CC(=O)CC[C@]5(C)[C@H]4C[C@@H](O)[C@]23C)CO1` [YTA0040, Aragusterol A], for which the “cell cycle arrest of human cancer cells” value with human cancer cells was “arrested human cancer cells cycle in the G1 phase”.
Consider `CN1CC[C@H](c2c(O)cc(O)c3c(=O)cc(-c4ccccc4Cl)oc23)[C@H](O)C1` [flavopiridol], for which, in the series on neuronal death, the excitotoxic neuronal death entry is given as “blocks”.
With `C=C(C)[C@H]1CN[C@H](C(=O)O)[C@H]1CC(=O)O` [kainic acid], in the series on cyclin D1, the “cyclin D1 expression” value was “upregulates”.
As to `CN(Cc1cnc2nc(N)nc(N)c2n1)c1ccc(C(=O)N[C@@H](CCC(=O)O)C(=O)O)cc1` [methotrexate], in series [2], the “cognitive impairment associated with treatment” value is recorded as “learning disabilities”.
Regarding `CC[C@H](CO)Nc1nc(NCc2ccccc2)c2ncn(C(C)C)c2n1` [roscovitine], the cell cycle arrest result in the series with cell cycle is reported as “cell cycle arrest at the G1 phase”.
On to `CCCC(=O)[O-].[Na+]` [sodium butyrate], for which the “expression of late G1 phase genes such as cdc 2” value in the series on cdc 2 is recorded as “inhibits”.
For the compound `C=CC[C@@H]1/C=C(\C)C[C@H](C)C[C@H](OC)[C@H]2O[C@@](O)(C(=O)C(=O)N3CCCC[C@H]3C(=O)O[C@H](/C(C)=C/[C@@H]3CC[C@@H](O)[C@H](OC)C3)[C@H](C)[C@@H](O)CC1=O)[C@H](C)C[C@@H]2OC` [tacrolimus], in the series with PC12 cells, the neurite outgrowth result was “little effect”.
